Laboratory results: patent US20030170176A1, “Individualization of therapy with antipsychotics” (McGill University, priority 2001, published 2003)

Test system: AAMU-Ab
Assay: Competitive antigen ELISA, cross-reactivity of AAMU-Ab
Type: binding, rabbit
Settings: 0 = absence of inhibition or inhibition no higher than 40% at highest concentration tested (5 × 10^−3 M)
Description: Competitive Antigen ELISA
Buffers and water without additives are filtered through millipore filters and kept for 1 week. BSA, antibodies, Tween™ 20 and horse radish peroxidase conjugates are added to these buffers and water just prior to use. Urine samples are usually collected 4 hours after drinking a cup of coffee (instant or brewed with approximately 100 mg of caffeine per cup) and stored at −80° C. The urine samples are diluted 10 times with sodium phosphate buffer (620 mosm, pH 7.50) and are subsequently diluted with water to give concentrations of AAMU and 1× no higher than 3×10^−6 M in the ELISA. All the pipettings are done with an eight-channel pipette, except those of the antibody and sample solutions. Starting with the last well, 100 μL of a carbonate buffer (100 mM, pH 9.6) containing 2.5 μg mL^−1 antibodies are added to each well. After 90 min. at room temperature, the wells are washed three times with […] of TPB: isotonic sodium phosphate buffer (310 mosm, pH 7.50) containing 0.05% Tween™ 20.
After the initial wash, unoccupied sites are blocked by incubation for 90 min. at room temperature with 100 μL TBP containing 3% BSA. The wells are washed four times with 100 μL TPB. […] The microplate is gently shaken with an orbital shaker at room temperature for 3-4 hours. […]

O=c1[nH]c(=O)c2[nH]cnc2[nH]1 [Xanthine]
% Cross-Reaction AAMU-Ab: 0a %
